Assay results: paper PMC9116245, “New 1,2,3-triazole linked ciprofloxacin-chalcones induce DNA damage by inhibiting human topoisomerase I& II and tubulin polymerization” (Journal of Enzyme Inhibition and Medicinal Chemistry, 2022)

System: SF-539
Assay type: cell-based
Settings: Homo sapiens

COc1cc(/C=C/C(=O)c2ccc(-n3cc(CN4CCN(c5cc6c(cc5F)c(=O)c(C(=O)O)cn6C5CC5)CC4)nn3)cc2)cc(OC)c1OC [Compound 4j, (E)-1-cyclopropyl-6-fluoro-4-oxo-7–(4-((1–(4-(3-(3,4,5-trimethoxyphenyl)acryloyl)phenyl)-1H-1,2,3-triazol-4-yl)methyl)piperazin-1-yl)-1,4-dihydroquinoline-3-carboxylic acid]
GI50: 1.91 µM | CC50 (read-out: LC50 (the source's name)): 10.3 µM
